Measured values: patent publication US20030021795A1, “Use of coiled-coil structural scaffold to generate structure-specific peptides” (priority 2000, published 2003)
Where two headings read alike, the source gives them in different places. Square brackets hold non-standard residues; d marks the D form. Ends that are not written are not given here. Nle = CCCC[C@H](N)C(=O)O

Tests used:
[1] = CD spectroscopy (helical content/conformation of peptides); format: physicochemical; settings: for conformation by CD in benign buffer: benign buffer (50 mM KH2PO4, 50 mM KCl, pH 7.0), absence of TFE
Protocol: Circular dichroism (CD) spectroscopy was performed using a Jasco J-500C spectropolarimeter (Jasco, Easton, Md.) equipped with a Jasco DP-500N data processor. A 10-fold dilution of an ˜[…] stock solution of the disulfide-linked peptide was loaded into a 0.02 cm fused silica cell and ellipticity scanned from 190 to 250 nm. […] A Lauda water bath (model RMS, Brinkmann Instruments, Rexdale, Ont.) was used to control the temperature of the cell. CD spectra were the average of four scans obtained by collecting data at 0.1 nm intervals from 250 to 190 nm.

[2] = Thermal denaturation monitored by [θ]222; format: physicochemical
Text: The stability of the peptides may be determined by thermal denaturation assays or chemical denaturation assays such as the guanidine chloride denaturation assay. Such assays are known to those skilled in the art. The stability of the peptides may also be indirectly assessed by inhibition ELISA, wherein the ability of a peptide to inhibit the interaction between an antigen and an antibody serves as an indicator of how stable the peptide is in assuming the necessary conformation to compete with the antigen for the antibody.
In order to determine the stability of CVX0270, a thermal denaturation study was undertaken.

anti-Strep serum = format: binding, mouse
[3] = tested on: Coiled-Coil Strep Antigen; experiment: Isotyping ELISA of mouse serum antibodies after i.p. immunization; format: in vivo, Balb/c mice; settings: immunogen dose 20 μg
[4] = tested on: Streptococcus pneumoniae serotype 1; format: cell-based; settings: antiserum Day 49; immunogen dose 20 μg
[5] = tested on: Streptococcus pneumoniae serotypes (1, 3, and 5); experiment: Opsonization assay with antiserum; format: cell-based
[6] = tested on: Streptococcus pneumoniae serotype 5; format: cell-based; settings: antiserum Day 49; immunogen dose 20 μg
[7] = tested on: Coiled-Coil Strep Antigen (Strep-BSA coating antigen); format: in vivo, Balb/c mice; settings: for Murine Sera (Day 49) OD 405 nm, Strep-BSA coating antigen: immunogen dose 20 μg
[8] = tested on: Streptococcus pneumoniae serotype 3; format: cell-based; settings: antiserum Day 49; immunogen dose 20 μg

Substance: CN1eG IEELEKK ITELKQK IDALENQ IHRLEQE IKELDES (C[Nle]GIEELEKKITELKQKIDALENQIHRLEQEIKELDES) [test peptide]
- conformation by CD in benign buffer [1]: exists in helical form even in benign buffer
- stability in thermal denaturation experiment [2]: much more stable than the native control

Substance: Acetyl-CN1eGEIEALKKKIEELSDKIDELEKEIK-amide [CVX0270]
- inhibition of anti-Strep serum binding (inhibition ELISA) (anti-Strep serum): significant inhibition
- ratio of the molar ellipticity at 222 and 208 ([θ]222/[θ]208) ([1]; benign conditions): greater than 1.02
- conformation by CD under aqueous conditions ([1]; benign conditions (50 mM KH2PO4, 100 mM KCl, pH 7.0)): highly helical and found predominantly in the coiled-coil conformation
- molar ellipticity at 222 nm ([θ]222) ([1]; benign conditions (50 mM KH2PO4, 100 mM KCl, pH 7.0), 20° C.): −29800
- helical content ([1]; benign conditions (50 mM KH2PO4, 100 mM KCl, pH 7.0), 20° C., versus theoretical [θ]222 −33900): 88%
- helical content ([1]; in the presence of 50% TFE): 101%
- stability in thermal denaturation experiment [2]: very stable
- % of original helicity retained ([2]; at 75° C.): 77%

Substance: TT: unconjugated tetanus toxoid carrier protein
- Isotype IgG1 ([3]; sera day 6): 0.06 O.D. 405 nm
- Isotype IgG2a ([3]; sera day 6): 0.02 O.D. 405 nm
- Isotype IgG2b ([3]; sera day 6): 0.01 O.D. 405 nm
- Isotype IgG3 ([3]; sera day 6): 0.01 O.D. 405 nm
- Isotype IgG1 ([3]; sera day 14): 0.05 O.D. 405 nm
- Isotype IgG2a ([3]; sera day 14): 0.00 O.D. 405 nm
- Isotype IgG2b ([3]; sera day 14): 0.00 O.D. 405 nm
- Isotype IgG3 ([3]; sera day 14): 0.01 O.D. 405 nm
- Isotype IgG1 ([3]; sera day 35): 0.08 O.D. 405 nm
- Isotype IgG2a ([3]; sera day 35): 0.01 O.D. 405 nm
- Isotype IgG2b ([3]; sera day 35): 0.01 O.D. 405 nm
- Isotype IgG3 ([3]; sera day 35): 0.01 O.D. 405 nm
- Isotype IgG1 ([3]; sera day 49): 0.44 O.D. 405 nm
- Isotype IgG2a ([3]; sera day 49): 0.03 O.D. 405 nm
- Isotype IgG2b ([3]; sera day 49): 0.02 O.D. 405 nm
- Isotype IgG3 ([3]; sera day 49): 0.05 O.D. 405 nm
- Percent Reduction of CFU Type 1 [4]: 7%
- reduction in colony forming units by antisera [5]: Little or no reduction in colony forming units
- Percent Reduction of CFU Type 5 [6]: 7%
- antibody titers to the Strep hapten ([7]; 20 μg, 10 μg and 5 μg doses): did not elicit any antibodies
- Murine Sera (Day 49) OD 405 nm, Strep-BSA coating antigen ([7]; serum dilution 1:2000): 0.11 OD 405 nm
- Murine Sera (Day 49) OD 405 nm, Strep-BSA coating antigen ([7]; serum dilution 1:4000): 0.04 OD 405 nm
- Murine Sera (Day 49) OD 405 nm, Strep-BSA coating antigen ([7]; serum dilution 1:8000): 0.01 OD 405 nm
- Murine Sera (Day 49) OD 405 nm, Strep-BSA coating antigen ([7]; serum dilution 1:16000): 0.06 OD 405 nm
- Murine Sera (Day 49) OD 405 nm, Strep-BSA coating antigen ([7]; serum dilution 1:32000): 0.00 OD 405 nm
- Murine Sera (Day 49) OD 405 nm, Strep-BSA coating antigen ([7]; serum dilution 1:64000): 0.00 OD 405 nm
- Murine Sera (Day 49) OD 405 nm, Strep-BSA coating antigen ([7]; serum dilution 1:128000): 0.00 OD 405 nm
- Murine Sera (Day 49) OD 405 nm, Strep-BSA coating antigen ([7]; serum dilution 1:256000): 0.00 OD 405 nm
- Percent Reduction of CFU Type 3 [8]: 6%

Substance: EIEALKKKIEELSDKIDELEKEIK [Strep #1]
- inhibition of anti-Strep serum binding (inhibition ELISA) (anti-Strep serum): Inhibition was also seen

Substance: CN1eG LEEAEKK ATEAKQK VDALENQ VHRLEQE LKEIDES (C[Nle]GLEEAEKKATEAKQKVDALENQVHRLEQELKEIDES) [native control]
- conformation by CD in benign buffer [1]: needs the presence of TFE to form a helical structure

Substance: EEESDKKDEEDAEKAE [Strep #2]
- inhibition of anti-Strep serum binding (inhibition ELISA) (anti-Strep serum): no inhibition
